Experimental data from US7312302B2, “Compositions for the detection of enzyme activity in biological samples and methods of use thereof” (Oncolmmunin, Inc., priority 1997, dated 2007).
Non-standard residues stand in square brackets, D forms with d. Primed or numbered codes have the meaning given here. No end group written: not given here. *: point of attachment. F1 = 5-carboxytetramethylrhodamine (donor fluorophore); F1(3) = carboxytetramethylrhodamine; Fmoc = O=C(OCC1c2ccccc2-c2ccccc21)*; code B = not defined here; code J = not defined here; Cbz = O=C(OCc1ccccc1)*; F1″ = not defined here; C5 = not defined here

Tested on: Jurkat cells, HL-60 cells, human lymphocyte lines, A1.1 cells, murine primary thymocytes
Assay: Cellular uptake of substrates by fluorescence microscopy, flow cytometry, HPLC
Assay type: cell-based
Details: viable cells
Procedure: The compounds listed in Table 6 were synthesized and assayed for cellular uptake. Cellular internalization of the substrates was tested using Jurkat cells (a human acute T cell leukemic line), HL-60 cells (a human promyelocytic leukemic line), human lymphocyte lines, A1.1 cells (a murine T-cell line), and murine primary thymocytes. Procedures used in determining substrate uptake by viable cells are provided in Example 6 (for the HPLC procedures), in Example 2 (for the fluorescence microscopic analysis), and in Example 3 (for the flow cytometric analysis) a summary of these analyses with respect to cellular uptake of substrates is presented in this example.
The elastase substrate, Fm—K[F1]DAIPNluSIPK[F1]GY (SEQ ID NO:185), (where F1 was carboxytetramethylrhodamine, Fm was Fmoc, K[F1] was F1 covalently attached through the epsilon amino group of lysine (K), and Fm—K is the Fmoc group covalently attached at the alpha amino group of the amino terminal lysine residue) was used with HL-60 cells. Cells were incubated with various concentrations of elastase substrate ranging from 10 nM to 10 μM for 5 minutes to 60 minutes. Then the cells were diluted 5-fold with RPMI 1640 medium containing 5% serum or with phosphate buffered saline. The samples were centrifuged and washed once more with 1 ml of washing solution. After centrifugation and removal of the washing solution, cell pellets were loosened with about 25 ul of medium and these cells were transferred to a glass capillary. Capillary tubes were then placed on a glass microscope slide and examined under a fluorescence microscope using standard rhodamine filters.
For apoptosis-related protease activity determination, 10 μM concentration of the compounds listed in Example 8 (compound structures 2 through 13) were incubated with cells for 30 min. to 3 hours. The cells were then washed similarly twice. Using glass capillary tubes, the washed cells were transferred and examined under a fluorescence microscope.
The concentration of substrates used in flow cytometric analysis was 10 M in RPMI1640 medium containing 4 to 10% fetal calf serum. Cell densities during incubation with the chosen substrates ranged from 50,000 cells per ml to 4,000,000 per ml. Incubation times were from 30 min. to 3 hours at 37° C. and incubation volumes were 50 μL to 2 ml. After incubation with substrate for 30 to 60 min. cell suspensions were diluted 10-fold with ice cold Hank's Buffered Saline Solution (HBSS). This filtered cell suspension was then subjected to flow cytometric analysis using a 488 nm excitation source. Becton Dickenson, Inc.'s flow cytometer, FacSort, was used in the flow cytometric analysis. Typically, 10,000 to 30,000 events per sample were collected.

Molecule | cellular uptake (Table 6)
Fm-K[F1]DBDEVDGIDPK[F1]GY (Fmoc-K(F1″)D[code B]DEVDGIDPK(F1″)GY; reading uncertain; also: printed as Fm-K[F1]DBDEVDGIDPK[F1]GY) [Compound 4] | efficient cellular uptake
Fm-K[F1]DBDEVNGIDPK[F1]GY (Fmoc-K(F1″)D[code B]DEVNGIDPK(F1″)GY; reading uncertain; also: printed as Fm-K[F1]DBDEVNGIDPK[F1]GY) [Compound 6] | efficient cellular uptake
Fm-DAIPNluSIPK[F1]GY [Compound 3] | does not result in significant cellular uptake
K[F1]DYBADGIDPK[F1]GY (K(F1″)DY[code B]ADGIDPK(F1″)GY; reading uncertain; also: printed as K[F1]DYBADGIDPK[F1]GY) [Compound 9] | not optimum for cellular uptake
Fm-K[F1]DAIPNluSIPK[F1]GY [Compound 1] | efficient cellular uptake
Fm-K[F1]DBGDEVDGIDGPK[F1]GY (K(F1)D[code B]GDEVDGIDGPK(F1)GY; not fully specified (N-terminus); printed as Fm-K[F1]DBGDEVDGIDGPK[F1]GY; reading uncertain) [Compound 10] | efficient cellular uptake
K[F1]DBDEVNGIDPK[F1]GY (K(F1″)D[code B]DEVNGIDPK(F1″)GY; reading uncertain; also: printed as K[F1]DBDEVNGIDPK[F1]GY) [Compound 7] | not optimum for cellular uptake
Z-K[F1]DBJGDEVDGIDGJPK[F1]GY (Cbz-K(F1″)D[code B][code J]GDEVDGIDG[code J]PK(F1″)GY; reading uncertain; also: printed as Z-K[F1]DBJGDEVDGIDGJPK[F1]GY) [Compound 12] | efficient cellular uptake
K[F1]DBDEVDGIDPK[F1]GY (K(F1″)D[code B]DEVDGIDPK(F1″)GY; reading uncertain; also: printed as K[F1]DBDEVDGIDPK[F1]GY) [Compound 5] | not optimum for cellular uptake
K[F1]DAIPNluSIPK[F1]GY [Compound 2] | not optimum for cellular uptake
Fm-K[F1]DBEVDGIDPK[F1]GY (Fmoc-K(F1″)D[code B]EVDGIDPK(F1″)GY; reading uncertain; also: printed as Fm-K[F1]DBEVDGIDPK[F1]GY) [Compound 8] | efficient cellular uptake

Target: T1, CPP32 protease (Homo sapiens, UniProt P42574)
T1 construct: served as a direct measure of the intracellular CPP32 protease activity; endogenous in cells
T1 sequence (P42574 29-277): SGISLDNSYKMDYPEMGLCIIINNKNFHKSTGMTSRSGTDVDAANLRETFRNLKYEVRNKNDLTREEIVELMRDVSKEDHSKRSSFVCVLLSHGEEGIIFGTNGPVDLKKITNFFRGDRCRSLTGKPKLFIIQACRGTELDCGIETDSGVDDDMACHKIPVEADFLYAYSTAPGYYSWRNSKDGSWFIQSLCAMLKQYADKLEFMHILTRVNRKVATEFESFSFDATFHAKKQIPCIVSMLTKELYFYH
Assay: Cell lysate hydrolysis of DEVD-AFC, competitive substrate inhibition (anti-Fas-stimulated Jurkat cell lysate)
Assay type: biochemical
Details: concentration raised to 25 μM; 50 μM DEVD-AFC, 37° C.
Procedure: The level of CPP32 protease activity in the 6 hr ant-Fas-stimulated Jurkat cell lysate was examined using the protease substrate, DEVD-AFC (where AFC is aminofluoromethyl coumarin) 50 μM substrate concentration at 37° C. The buffer used was 50 mM HEPES, pH7.5, 10% w/v sucrose, 0.1% w/v CHAPS.) Fluorescence intensity changes were monitored with an SLM 48000 spectrofluorometer. […] As the concentrations of DEVD, DEVN, and ICE were raised to 25 μM, the rate of DEVD-AFC hydrolysis was decreased.

rate of DEVD-AFC hydrolysis in presence of substrate | Molecule
decreased | K[F1]DYBADGIDPK[F1]GY (K(F1″)DY[code B]ADGIDPK(F1″)GY; reading uncertain; also: printed as K[F1]DYBADGIDPK[F1]GY) [Compound 9]
decreased | K[F1]DBDEVNGIDPK[F1]GY (K(F1″)D[code B]DEVNGIDPK(F1″)GY; reading uncertain; also: printed as K[F1]DBDEVNGIDPK[F1]GY) [Compound 7]
decreased | K[F1]DBDEVDGIDPK[F1]GY (K(F1″)D[code B]DEVDGIDPK(F1″)GY; reading uncertain; also: printed as K[F1]DBDEVDGIDPK[F1]GY) [Compound 5]

Tested on: not given
Assay: not given
Details: doubly labeled NorFes, Packard et al. 1998; cited from earlier work

Molecule | free energy of activation of disruption of homodimers
CN(C)c1ccc2c(-c3ccccc3C(=O)[O-])c3ccc(N(C)C)cc3[o+]c2c1 [tetramethylrhodamine] | at least 1.7 kcal/mole
diethylrhodamine | 2.4 kcal/mol

Same assay, conditions: free dye in solution; cited from earlier work

Molecule | concentration above which ground-state dimerization of free dye in solution was observed
O=C1OC2(c3ccccc31)c1cc(Br)c(O)c(Br)c1Oc1c2cc(Br)c(O)c1Br [Eosin] | higher than 2.8×10^−2 M
CCN(CC)c1ccc2c(-c3ccccc3C(=O)O)c3ccc(=[N+](CC)CC)cc-3oc2c1.[Cl-] [Rhodamine B] | higher than 6×10^−4 M

Tested on: DEVDase activity (caspase 3/7)
Assay: DEVDase activity in apoptotic thymocyte extract using PhiPhiLux substrate, with protease inhibitors
Assay type: biochemical, mouse
Details: apoptotic thymocyte extract, FIG. 5
Procedure: FIG. 5 illustrates the inhibition of DEVDase activity in apoptotic thymocyte extract using PhiPhiLux™ substrate. An extract of mouse thymocytes exposed to 0.1 mM dexamethasone for 6 h was incubated in fluorometer cuvettes at 37° C. with 10 mM PhiPhiLux™ substrate with or without the indicated protease inhibitors. Enzymatic activity was calculated from the rate of increase of fluorescence.
Single cell suspensions of thymocytes were cultured in RPMI 1640 with 10% FCS at a concentration of 10 6 cells/ml. Dexamethasone (final concentration, 0.1 mM) and ZVAD (OMe)FMK (final concentration, 50 mM) were added at the indicated times from stock solutions in DMSO (100 mM for dexamethasone and 200 mM for ZVAD[OMe]FMK). For antiFas stimulation, wells in a 24 well plate were coated with antiFas antibody (20 mg/ml; […] per well) overnight at 378 C. After twice washing the wells with medium containing 10% FCS, 4 3 10 6 thymocytes were added per well. After culture at 378 C in a 5% CO2 atmosphere for the indicated times, cells were centrifuged and resuspended in 75 ml of each substrate (10 mM) in 1.5 ml Eppendorf tubes. The open tubes were placed in the CO2 incubator for an additional 60 min. After washing in saline, cells were analyzed by flow cytometry. Caspase activity measurements in extracts with several known inhibitors and noninhibitors were carried out using fluorometers from Photon Technology International and SLMAMINCO. Cell lysates were prepared using a cell lysate buffer consisting of 50 mM Hepes, pH 7.5, 10% (wt/vol) sucrose, 0.1% (wt/vol) CHAPS, 0.5% (wt/vol) Triton X100, and 10 mM DTT. The substrate (10 mM) was prepared in 50 mM Hepes, pH 7.5, with 10 mM DTT. All measurements were made at 378 C using a thermostated cell holder in a 150 ml quartz cuvette (3 3 3. 45 mm; Starna Cells, Inc.). The temperature of the substrate solution was preequilibrated for 20 min, ensuring temperature equilibration by having a flat base line before cell lysate addition. A 10 ml aliquot from an apoptotic thymocyte lysate was added to 110 ml of substrate solution. The fluorescence intensity was then monitored for 30-60 min. The initial velocity was calculated from the linear portion of the fluorescence increase. Various amounts of inhibitors were added to the cell lysate for 20 min before addition of the cell lysate mixture to the substrate solution.
The caspase substrates used in these studies were based on optimal peptide recognition motifs for various caspases as reported by peptide library studies (2) and are described in Table I. To assess whether cleavage of these substrates in apoptotic thymocytes was due to caspases, we examined extracts from untreated fresh thymocytes, or from thymocytes treated with dexamethasone.

Molecule | inhibition of apoptotic DEVDase activity
CC(C)C[C@H](NC(=O)[C@H]1O[C@@H]1C(=O)O)C(=O)NCCCCN=C(N)N [Compound E64] | lack of inhibition
NC(=O)CI [iodoacetamide] | inhibition
CC(=O)N[C@@H](CC(C)C)C(=O)N[C@@H](CC(C)C)C(=O)N[C@H](C=O)CCCNC(=N)N [leupeptin] | lack of inhibition
CC(=O)N[C@@H](CC(=O)O)C(=O)N[C@@H](CCC(=O)O)C(=O)N[C@H](C(=O)N[C@H](C=O)CC(=O)O)C(C)C [DEVDCHO] | complete inhibition

Same assay, conditions: on a cell basis

cleavage by apoptotic thymocyte extracts relative to fresh thymocyte extracts | Molecule
25 fold | KDPC5GDEVDGIDGC5PKGY (KDP[C5]GDEVDGIDG[C5]PKGY; reading uncertain; also: printed as KDPC5GDEVDGIDGC5PKGY) [PhiPhiLux, cell-permeable fluorogenic caspase 3/7 substrate from OncoImmunin, Inc]

Tested on: not listed separately
Assay: Ground-state (H-type) dimer formation by absorption spectroscopy
Assay type: physicochemical
Details: homodoubly-labeled peptides
Excerpt: This was indicated by shift of absorption maxima to shorter wavelengths as well as a shape change of the absorption spectra as compared with the spectra for the enzyme digested doubly-labeled samples. Upon cleavage with elastase, the ground-state dimers were destroyed and the resulting spectra were the same as a solution containing equal concentrations of the respective singly labeled peptides.
For example, NorFes, an undecapeptide which is cleaved by the serine protease elastase, was homodoubly labeled on opposite sides of its cleavage site with six fluorophores in order to identify structural elements of dyes which influence intramolecular H-type dimer formation.

Molecule | dye-dye (ground-state, H-type) dimer formation / spectral change
c1cc2ccc3cccc4ccc(c1)c2c34 [pyrene] | No spectral changes were observed
F1-PDEVDGIDPK[F1]GY ({F1(3)}-PDEVDGIDPK(F1(3))GY) | did not allow the formation of productive H-type dimers
F1-DEVDGIDPK[F1]GY ({F1(3)}-DEVDGIDPK(F1(3))GY) | did not allow the formation of productive H-type dimers
